Among the test systems are SN12C; SW-620; SR; NCI-H23; RXF 393; HT-29; SK-OV-3; EKVX; Malme-3M; HOP-62; SNB-19; OVCAR-5; OVCAR-4; UACC-257; CAKI-1; UACC-62; NCI-H522.
What all share (assay): growth of human tumour cells (NCI), 48 h

Here are results for 12 molecules from ChEMBL document CHEMBL1201862, “PubChem BioAssay data set” (2004).

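Five compound concentrations were applied to cells in 96-well plates for 48 hours; endpoints were derived by simple linear interpolation of the resulting dose-response curve. GI50: concentration for 50% inhibition of growth.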 Activity calls are given as the source filed them. No stated cut-off is given here; in the data, active = GI50 up to about 1.1 µM and inactive = higher.

Take `CC12CC(=O)C3C(CCC4=CC(=O)CCC43C)C1CC=C2CC(=O)O` (stereo not drawn): the GI50 with SN12C, in the assay with SW-620, in the assay on SR, in the assay on NCI-H23, with RXF 393 and with HT-29 was > 100 µM (inactive) throughout. Further, the GI50 with SK-OV-3, with EKVX, in the assay with Malme-3M, with HOP-62, in the assay on SNB-19 and in the assay with OVCAR-5 was > 100 µM (inactive) throughout. Also, the GI50 with OVCAR-4, in the assay on UACC-257, in the assay on CAKI-1, in the assay with UACC-62 and with NCI-H522 was > 100 µM (inactive) throughout.

Consider `N#Cc1c2c(c(Nc3ccc(F)cc3)n3c1nc1ccccc13)CCC2`, for which the GI50 in the assay on SN12C is 2.1 µM (inactive); in the assay on SW-620 it was 2.43 µM (inactive); in the assay with SR, 10.2 µM (inactive); in the assay with NCI-H23, 4.93 µM (inactive); with RXF 393, 2.14 µM (inactive); in the assay on HT-29, 1.87 µM (inactive). Besides, the GI50 in the assay with SK-OV-3 is 9.93 µM (inactive); in the assay on EKVX it was 11.3 µM (inactive); in the assay on Malme-3M, 7.41 µM (inactive); with HOP-62, 3.03 µM (inactive); in the assay on SNB-19, 8.61 µM (inactive); in the assay with OVCAR-5 it was 5.02 µM (inactive). Besides, the GI50 was 10 µM (inactive) with OVCAR-4; 7.96 µM (inactive) in the assay on UACC-257; 1.68 µM (inactive) with CAKI-1; 10.9 µM (inactive) with UACC-62; 2.2 µM (inactive) in the assay on NCI-H522.

As for `COc1ccc(/C=C/C(=O)Oc2cc(O)cc(O)c2)cc1`, the GI50 in the assay on SN12C is 36.4 µM (inactive); in the assay with SW-620, 41.1 µM (inactive); in the assay on SR, 25.1 µM (inactive); with NCI-H23 it was 42.1 µM (inactive); in the assay with RXF 393, 72.4 µM (inactive); with HT-29, 29.4 µM (inactive). For the same molecule, the GI50 is > 100 µM (inactive) with SK-OV-3; 56.2 µM (inactive) in the assay on EKVX; 36.6 µM (inactive) with Malme-3M; 17.3 µM (inactive) in the assay on HOP-62; > 100 µM (inactive) in the assay with SNB-19; > 100 µM (inactive) with OVCAR-5. Also, the GI50 is 85.5 µM (inactive) in the assay on OVCAR-4; > 100 µM (inactive) with UACC-257; 17.2 µM (inactive) in the assay on CAKI-1; > 100 µM (inactive) with UACC-62; 24.4 µM (inactive) in the assay on NCI-H522.

On to `Cc1cn2c(C)csc2c1P(=O)(OC(C)C)OC(C)C`, for which the GI50 with SN12C, in the assay on SW-620, in the assay with SR, in the assay on NCI-H23, in the assay on RXF 393 and with HT-29 was > 100 µM (inactive) throughout. Besides, the GI50 in the assay with SK-OV-3, in the assay on EKVX, with Malme-3M, with HOP-62, in the assay with SNB-19 and in the assay with OVCAR-5 was > 100 µM (inactive) each time. In addition, the GI50 with OVCAR-4, with UACC-257, with CAKI-1, in the assay with UACC-62 and in the assay with NCI-H522 was > 100 µM (inactive) in each case.

Consider `O=C1c2ccccc2S(=O)(=O)c2c1cccc2[N+](=O)[O-]`, for which the GI50 in the assay with SN12C is 2.2 µM (inactive); with SW-620 it was 1.61 µM (inactive); in the assay on SR, 0.902 µM (active); in the assay on NCI-H23 it was 3.5 µM (inactive); with RXF 393, 2.9 µM (inactive); in the assay on HT-29, 2.57 µM (inactive). Besides, the GI50 with SK-OV-3 is > 6.62 µM (inactive); in the assay with EKVX, 3.35 µM (inactive); in the assay with Malme-3M, 1.46 µM (inactive); with HOP-62, 5.32 µM (inactive); in the assay with SNB-19, > 10 µM (inactive); in the assay with OVCAR-5 it was 3.45 µM (inactive). For the same molecule, the GI50 in the assay with OVCAR-4 was 2.12 µM (inactive); in the assay with UACC-257, 1.87 µM (inactive); in the assay with CAKI-1, 4.21 µM (inactive); in the assay on UACC-62 it was 1.72 µM (inactive); with NCI-H522, 1.18 µM (inactive).

On to `CNCCCNC(=S)Cn1cc(C)c(=O)[nH]c1=O`, for which the GI50 in the assay with SN12C is > 100 µM (inactive); in the assay on SW-620, > 56.4 µM (inactive); with SR, > 32.9 µM (inactive); in the assay with NCI-H23, > 41.8 µM (inactive); in the assay with RXF 393, > 60.3 µM (inactive); in the assay on HT-29, > 35.9 µM (inactive). Besides, the GI50 in the assay on SK-OV-3 is > 54.8 µM (inactive); with EKVX it was > 60.8 µM (inactive); with Malme-3M, > 100 µM (inactive); with HOP-62 it was > 54.3 µM (inactive); in the assay on SNB-19 it was > 91.2 µM (inactive); in the assay with OVCAR-5, > 69.5 µM (inactive). Moreover, the GI50 is > 53.2 µM (inactive) in the assay on OVCAR-4; > 37.9 µM (inactive) with UACC-257; 24.9 µM (inactive) in the assay with CAKI-1; > 47.4 µM (inactive) with UACC-62; > 53.6 µM (inactive) in the assay with NCI-H522.

Take `NNC(=O)c1cc([N+](=O)[O-])ccc1NC(=O)C12CC3CC(CC(C3)C1)C2`: the GI50 in the assay with SN12C is 8.63 µM (inactive); in the assay on SW-620, 7.74 µM (inactive); with SR, 3.43 µM (inactive); in the assay with NCI-H23, 19.5 µM (inactive); with RXF 393, 7.98 µM (inactive); in the assay on HT-29, 25.8 µM (inactive). Also, the GI50 in the assay on SK-OV-3 was 2.7 µM (inactive); in the assay on EKVX, 7.05 µM (inactive); with Malme-3M, 16.5 µM (inactive); with HOP-62, 16.3 µM (inactive); in the assay on SNB-19 it was 2.98 µM (inactive); in the assay on OVCAR-5, 13.4 µM (inactive). In addition, the GI50 with OVCAR-4 was 2.62 µM (inactive); in the assay on UACC-257, 15.2 µM (inactive); in the assay with CAKI-1, 5.7 µM (inactive); with UACC-62, 10 µM (inactive); in the assay on NCI-H522, 3 µM (inactive).

With `CC1(C)[C@@H]2CC[C@@]1(C)CN(CCC[N+](C)(C)C)C2`, the GI50 with SN12C, in the assay on SW-620, in the assay with SR, in the assay on NCI-H23, in the assay with RXF 393 and with HT-29 was > 100 µM (inactive) throughout. The GI50 in the assay on SK-OV-3, in the assay on EKVX, with Malme-3M, in the assay on HOP-62, in the assay on SNB-19 and in the assay on OVCAR-5 was > 100 µM (inactive) each time. In addition, the GI50 with OVCAR-4, in the assay on UACC-257, with CAKI-1, in the assay on UACC-62 and with NCI-H522 was > 100 µM (inactive) throughout.

With `c1ccc(-c2nc3ccccc3n3c(CN4CCCCC4)nnc23)cc1`, the GI50 in the assay with SN12C was > 100 µM (inactive); in the assay with SW-620 it was > 100 µM (inactive); in the assay on SR it was > 100 µM (inactive); with RXF 393, 35.7 µM (inactive); in the assay on HT-29, > 100 µM (inactive); in the assay on SK-OV-3, 47.3 µM (inactive). The GI50 is 93.5 µM (inactive) in the assay on EKVX; > 100 µM (inactive) in the assay with Malme-3M; 28.5 µM (inactive) with HOP-62; 36.2 µM (inactive) in the assay with SNB-19; > 100 µM (inactive) with OVCAR-5; > 100 µM (inactive) in the assay on OVCAR-4. Also, the GI50 in the assay with UACC-257, in the assay with CAKI-1, with UACC-62 and in the assay on NCI-H522 was > 100 µM (inactive) throughout.

Turning to `N#CC1CNC(N)NC1N` (stereo not drawn), the GI50 is > 100 µM (inactive) in the assay on SN12C; > 100 µM (inactive) in the assay on SW-620; 34 µM (inactive) in the assay on SR; > 100 µM (inactive) in the assay with NCI-H23; > 100 µM (inactive) with RXF 393; > 100 µM (inactive) in the assay on HT-29. For the same molecule, the GI50 with SK-OV-3, in the assay on EKVX, in the assay with Malme-3M, in the assay with HOP-62, in the assay on SNB-19 and in the assay on OVCAR-5 was > 100 µM (inactive) each time. Further, the GI50 in the assay on OVCAR-4, in the assay with UACC-257, with CAKI-1, with UACC-62 and with NCI-H522 was > 100 µM (inactive) in each case.

With `CCc1nc(N)nc(N)c1-c1ccc([N+](=O)[O-])c(Cl)c1`, the GI50 in the assay with SN12C is 13.3 µM (inactive); in the assay on SW-620, 1.49 µM (inactive); in the assay on SR, 1.74 µM (inactive); with NCI-H23, 3.56 µM (inactive); in the assay on RXF 393, 16.1 µM (inactive); with HT-29, 1.78 µM (inactive). Besides, the GI50 was 27.5 µM (inactive) in the assay on SK-OV-3; 5.74 µM (inactive) with EKVX; > 100 µM (inactive) in the assay on Malme-3M; 7.53 µM (inactive) in the assay on HOP-62; 17.9 µM (inactive) in the assay on SNB-19; 25.2 µM (inactive) with OVCAR-5. In addition, the GI50 is 46.5 µM (inactive) in the assay on OVCAR-4; 31 µM (inactive) with UACC-257; 4.55 µM (inactive) with CAKI-1; 1.73 µM (inactive) with UACC-62; 6.1 µM (inactive) in the assay on NCI-H522.

As for `CC(=O)OC[C@H]1O[C@@H](O[C@H]2[C@H](OC(C)=O)C=CO[C@@H]2COC(C)=O)C(OC(C)=O)[C@H]2OC(C)(C)O[C@H]21` (stereo partly drawn), the GI50 is > 100 µM (inactive) in the assay with SN12C; 64.3 µM (inactive) with SW-620; 43.3 µM (inactive) with SR; > 100 µM (inactive) in the assay on NCI-H23; 2.43 µM (inactive) in the assay with RXF 393; > 100 µM (inactive) in the assay on HT-29. Also, the GI50 in the assay with SK-OV-3, in the assay on EKVX, with Malme-3M, with HOP-62, in the assay on SNB-19 and in the assay on OVCAR-5 was > 100 µM (inactive) each time. Further, the GI50 with OVCAR-4 is > 100 µM (inactive); in the assay with UACC-257, > 100 µM (inactive); with CAKI-1, > 100 µM (inactive); with UACC-62 it was > 100 µM (inactive); with NCI-H522 it was 17.1 µM (inactive).
